{"source": "patent US7981875B2", "about": "“2″ oxo-voruscharin and derivatives thereof” (priority 2002, dated 2011)", "key": {"[1]": {"test_system": "HCT-15 human cancer cells", "assay": "Cell cycle kinetics by flow cytometry (propidium iodide)", "format": "cell-based", "parameters": "key to Effect on cell cycle kinetics, G0/G1 / Effect on cell cycle kinetics, S / Effect on cell cycle kinetics, G2/M: n.s. means no significant; ** means highly significant; *** very highly significant", "procedure": "(§1) Cell lines were seeded in flasks (25 cm^2 area) containing 7 ml of culture medium. After 48 hours incubation at 37° C. the cell culture medium was replaced by a fresh medium in which the substance to be tested had been dissolved at the different concentrations required. Uscharin and 2″ oxo-voruscharin were tested at concentrations, which kill 50% and 30% of the cell population, represented by the IC50 and IC30 values, respectively. After 24 or 72 hours of treatment the cells were harvested in suspension, washed in Phosphate Buffer Saline (PBS) at 4° C. and permeabilized with 70% ethanol (at 4° C.) overnight at −20° C. The cells were then washed with PBS and incubated with propidium iodide solution (80 μg/ml) for 30 minutes at 37° C. and afterward at 4° C. overnight. Ribonuclease A (3% V/V) was added to the PI solution to break doubled-stranded RNA. The portrait of the cell cycle was established for each sample. Software incorporated into the flow cytometer was used to define precisely the percentage of cells in the different cell cycle phases. Each cell cycle phase was reported in terms of peak surface and calculated as a percentage. The surface of the entire cell cycle was 100%. Each experiment was carried out 3 times. The mean percentage of each different phase and the standard error of the related mean were calculated. Each cell cycle phase of a given condition was compared with the same cell cycle phase of control. The non-treated cells constituted control.\n(§2) Uscharin and 2″ oxo-voruscharin are highly toxic to human tumor cell lines. The concentrations used in the flow cytometry experiments were chosen in accordance with the MTT results (example 2). Three human cancer cell lines, Hs683, J82, and HCT-15 were tested and doses that killed 30 and 50 percent of the cells were applied to investigate whether uscharin and 2″ oxo-voruscharin promoted an accumulation in one of the cell cycle phases when the cell cultures were treated for 24 or 72 hours with increasing concentrations of the compounds. The IC50 and IC30 values for uscharin and 2″ oxo-voruscharin corresponding to the three tested cell lines are represented in Table E."}, "Hs683 human cancer cells": {"test_system": "Hs683 human cancer cells", "assay": "Cell cycle kinetics by flow cytometry (propidium iodide)", "format": "cell-based", "parameters": "key to Effect on cell cycle kinetics, G0/G1 / Effect on cell cycle kinetics, S / Effect on cell cycle kinetics, G2/M: n.s. means no significant; ** means highly significant; *** very highly significant", "procedure": "as §1, §2"}, "J82 human cancer cells": {"test_system": "J82 human cancer cells", "assay": "Cell cycle kinetics by flow cytometry (propidium iodide)", "format": "cell-based", "parameters": "key to Effect on cell cycle kinetics, G0/G1 / Effect on cell cycle kinetics, S / Effect on cell cycle kinetics, G2/M: n.s. means no significant; ** means highly significant; *** very highly significant", "procedure": "as §1, §2"}, "[2]": {"test_system": "MCF-7-TD5 (breast cancer)", "assay": "Sub-cutaneous xenograft breast cancer model", "format": "in vivo, mice", "procedure": "(§3) Three types of results were obtained with in vivo anti-tumor pharmacology: 1) the cumulative toxicity of chemotherapeutic administrations through recording the weights of the tumor-bearing mice during treatment, 2) the actual anti-tumor effect exerted at tumor growth level. If the tumor models are grafted subcutaneously (s.c.), tumor size is measured three times a week by means of a caliper and expressed as an area (mm^2) by multiplying together the two largest perpendicular diameters, and 3) the gain in survival for the animals treated, which is evaluated by means of the T/C index. This index is the ratio between the median survival time of the group of treated animals (T) and that of the control group. The drug is considered to be active if the T/C value is above 130% (P<0.05), and toxic for a value lower than 70%.\n(§4) The antitumoral activity of compound B was evaluated in different xenografted models: sub-cutanous model: MCF-7-TD5 (breast cancer) and C32 (melanoma cancer) and orthotopic model: A549 (lung cancer).\nThe MCF-7-TD5 model described herein is a […] form of MCF-7 transfected with v-Ha-ras oncogene and with a neomycin-resistance gene. Compound B was assayed at MTD/8 (10 mg/kg) and MTD/16 (5 mg/kg) five times a week.\nAfter s.c. injection of MCF-7-TD5 into untreated female nu/nu mice, the MCF-7 TD5 produced tumors after latency periods of 7 to 18 weeks. […] No oestradiol was used during the experiments described in this example."}, "C32 (melanoma cancer)": {"test_system": "C32 (melanoma cancer)", "assay": "Sub-cutaneous melanoma cancer model", "format": "in vivo, mice", "details": "for T/C index: three times a week", "procedure": "as §3, §4\nExperimental melanomas were set up in mice by painting their skins with a carcinogen. These experimental melanomas display certain morphological characteristics close to those of human melanomas but are less aggressive biologically. Compound B was assayed at DMT/4 (20 mg/kg), DMT/8 (10 mg/kg) and DMT/16 (5 mg/kg) three times a week. […] Indeed the T/C index values measured were respectively 95%, 107% and 81%."}, "A549 (lung cancer)": {"test_system": "A549 (lung cancer)", "assay": "Orthotopic lung cancer model", "format": "in vivo, mice", "details": "for T/C index: A549 orthotopic, three times a week", "procedure": "as §3, §4\nLung cancer is the leading cause of cancer deaths worldwide. Most patients die of progressive metastatic disease despite aggressive local and systemic therapies. The pathogenesis of lung cancer remains highly elusive due to its aggressive biologic nature and considerable heterogeneity, as compared to other cancers. Orthotopic lung cancer models are described in the literature using endobronchial, intrathoracic or intravenous injection of tumor cell suspensions and by surgical implantation of fresh tumor tissue. The tumor cells are directly injected into the lung of nude mice. The advantages of orthotopic models include improved tumor take and enhanced invasive and metastatic properties.\nCompound B was assayed at DMT/2 (40 mg/kg), DMT/4 (20 mg/kg) and DMT/8 (10 mg/kg) three times a week. […] These values are statistically significant.\nFIG. 21 represents the death rate of nine mice in each of the control and test groups during the experiment. Kaplan-Meier statistical analysis was used. The statistics value underlines the general fit of the test control in comparison with the general fit of the control group. […] The level significance was p<0.05."}}}
{"smiles": "CC1CC2(NC(=O)CS2)C2(O)OC3CC4(C=O)C(CCC5C4CCC4(C)C(C6=CC(=O)OC6)CCC54O)CC3OC2O1", "note": "(stereo not shown) [2″oxo-voruscharin, 2″ oxo-voruscharin]", "values": [{"measurement": "Effect on cell cycle kinetics, G0/G1", "setting": "[1]; HCT-15, 24 h", "result": "n.s."}, {"measurement": "Effect on cell cycle kinetics, G2/M", "setting": "[1]; HCT-15, 24 h", "result": "n.s."}, {"measurement": "Effect on cell cycle kinetics, S", "setting": "[1]; HCT-15, 24 h", "result": "n.s."}, {"measurement": "Effect on cell cycle kinetics, G0/G1", "setting": "[1]; HCT-15, 72 h", "result": "n.s."}, {"measurement": "Effect on cell cycle kinetics, G2/M", "setting": "[1]; HCT-15, 72 h", "result": "n.s."}, {"measurement": "Effect on cell cycle kinetics, S", "setting": "[1]; HCT-15, 72 h", "result": "***"}, {"measurement": "cell cycle, S-phase", "setting": "[1]; HCT-15, 72 hours, highest concentration tested (4.3×10^−8 M uscharin, 1.2×10^−8 M 2″oxo-voruscharin)", "result": "accumulation in S-phase"}, {"measurement": "cell cycle, G2/M phase", "setting": "Hs683 human cancer cells; Hs683, 8.3×10^−9 M after 24 hours and both concentrations for 72 hours, significant", "result": "accumulation in G2/M phase"}, {"measurement": "Effect on cell cycle kinetics, G0/G1", "setting": "Hs683 human cancer cells; Hs683, 24 h", "result": "n.s."}, {"measurement": "Effect on cell cycle kinetics, G2/M", "setting": "Hs683 human cancer cells; Hs683, 24 h", "result": "***"}, {"measurement": "Effect on cell cycle kinetics, S", "setting": "Hs683 human cancer cells; Hs683, 24 h", "result": "n.s."}, {"measurement": "Effect on cell cycle kinetics, G0/G1", "setting": "Hs683 human cancer cells; Hs683, 72 h", "result": "n.s."}, {"measurement": "Effect on cell cycle kinetics, G2/M", "setting": "Hs683 human cancer cells; Hs683, 72 h", "result": "**"}, {"measurement": "Effect on cell cycle kinetics, S", "setting": "Hs683 human cancer cells; Hs683, 72 h", "result": "n.s."}, {"measurement": "Effect on cell cycle kinetics, G0/G1", "setting": "J82 human cancer cells; J82, 24 h", "result": "n.s."}, {"measurement": "Effect on cell cycle kinetics, G2/M", "setting": "J82 human cancer cells; J82, 24 h", "result": "n.s."}, {"measurement": "Effect on cell cycle kinetics, S", "setting": "J82 human cancer cells; J82, 24 h", "result": "n.s."}, {"measurement": "Effect on cell cycle kinetics, G0/G1", "setting": "J82 human cancer cells; J82, 72 h", "result": "n.s."}, {"measurement": "Effect on cell cycle kinetics, G2/M", "setting": "J82 human cancer cells; J82, 72 h", "result": "n.s."}, {"measurement": "Effect on cell cycle kinetics, S", "setting": "J82 human cancer cells; J82, 72 h", "result": "**"}, {"measurement": "cell cycle, S-population", "setting": "J82 human cancer cells; J82, only after 72 hours of treatment at both concentrations tested", "result": "increase of S-population"}]}
{"smiles": "CC1CC2(NC(=O)CS2)C2(O)OC3CC4(CO)C(CCC5C4CCC4(C)C(C6=CC(=O)OC6)CCC54O)CC3OC2O1", "note": "(stereo not shown) [Compound B]", "values": [{"measurement": "survival periods of MCF-7-TD5 tumor bearing mice", "setting": "[2]; 60 administrations of 10 mg/kg and 5 mg/kg", "result": "not sufficient to significantly increase the survival periods"}, {"measurement": "MCF-7-TD5 tumor growth", "setting": "[2]; 60 administrations of 10 mg/kg and 5 mg/kg, five times a week", "result": "significantly decreased MCF-7-TD5 tumor growth"}, {"measurement": "weight of MCF-7-TD5 tumor bearing mice (toxic side effects)", "setting": "[2]; constant administrations, 10 mg/kg and 5 mg/kg", "result": "did not lose any significant weight"}, {"measurement": "T/C index", "setting": "C32 (melanoma cancer); C32, 21×5 mg/kg", "result": 81, "unit": "%"}, {"measurement": "T/C index", "setting": "C32 (melanoma cancer); C32, 25×20 mg/kg", "result": 95, "unit": "%"}, {"measurement": "T/C index", "setting": "C32 (melanoma cancer); C32, 28×10 mg/kg", "result": 107, "unit": "%"}, {"measurement": "tumor area", "setting": "C32 (melanoma cancer); C32-tumor bearing mice, most important effect at 10 mg/kg", "result": "decreased the tumor area"}, {"measurement": "weight of C32-tumor bearing mice (toxic side effects)", "setting": "C32 (melanoma cancer); constant administration, 20, 10 and 5 mg/kg", "result": "did not loose any significant weight"}, {"measurement": "T/C index", "setting": "A549 (lung cancer); 3×40 mg/kg", "result": 124, "unit": "%"}, {"measurement": "T/C index", "setting": "A549 (lung cancer); 7×20 mg/kg", "result": 152, "unit": "%"}, {"measurement": "T/C index", "setting": "A549 (lung cancer); 10×10 mg/kg", "result": 186, "unit": "%"}, {"measurement": "weight of A549-tumor bearing mice (toxic side effects)", "setting": "A549 (lung cancer); constant administrations, 40, 20 and 10 mg/kg", "result": "did not lose any significant weight"}, {"measurement": "weight of A549-tumor bearing mice", "setting": "A549 (lung cancer); first week of administration at 40 mg/kg", "result": "significant loss of weight"}]}
